{"source": "patent US12569478B2", "about": "(priority 2021, dated 2026)", "origin": "cited, not measured here", "conditions": "in vivo"}
{"smiles": "C=CCN1CC[C@]23c4c5ccc(O)c4O[C@H]2C(=O)CC[C@@]3(O)[C@H]1C5", "note": "[naloxone]", "values": [{"measurement": "half-life", "value": "~1", "unit": "h"}]}
